According to ChEMBL document CHEMBL1250439, “2-phenyl-1-[4-(2-piperidine-1-yl-ethoxy)benzyl]-1H-benzimidazoles as ligands for the estrogen receptor: synthesis and pharmacological evaluation” (Bioorg Med Chem, 2010):
Active and inactive are the calls of the source. The rule behind the calls is not given here.

How the values were obtained:
[1] = test system: Calf thymus DNA; assay: Binding affinity to calf thymus DNA assessed as change in melting temperature; type: nucleic-acid assay; details: Bos taurus
[2] = target: T1, Estrogen receptor (Homo sapiens, UniProt P03372); assay: Antagonist activity at human ERalpha expressed in human MCF7 cells at 10 uM by luciferase reporter gene assay; type: functional, cell-based
T1 sequence (P03372 whole entry): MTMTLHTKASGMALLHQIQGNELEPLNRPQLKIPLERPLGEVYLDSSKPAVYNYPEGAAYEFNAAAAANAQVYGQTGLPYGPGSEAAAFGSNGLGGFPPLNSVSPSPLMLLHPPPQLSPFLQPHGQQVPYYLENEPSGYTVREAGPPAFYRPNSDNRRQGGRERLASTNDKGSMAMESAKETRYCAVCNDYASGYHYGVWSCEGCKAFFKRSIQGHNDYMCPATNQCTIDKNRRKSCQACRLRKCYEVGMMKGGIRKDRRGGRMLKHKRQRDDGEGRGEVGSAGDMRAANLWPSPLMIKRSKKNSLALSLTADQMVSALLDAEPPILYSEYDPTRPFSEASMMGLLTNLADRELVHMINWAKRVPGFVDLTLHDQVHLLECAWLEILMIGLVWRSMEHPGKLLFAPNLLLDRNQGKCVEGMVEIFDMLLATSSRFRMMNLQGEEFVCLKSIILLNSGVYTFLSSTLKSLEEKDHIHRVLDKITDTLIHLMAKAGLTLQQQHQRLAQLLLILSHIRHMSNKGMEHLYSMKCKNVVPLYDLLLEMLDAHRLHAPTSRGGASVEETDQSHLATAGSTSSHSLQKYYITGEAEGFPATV

[3] = test system: MCF7; assay: Cytostatic activity against human MCF7 cells at 1 uM after 3 days by microtiter assay; type: functional
[4] = test system: MCF7; assay: Cytostatic activity against human MCF7 cells at 10 uM after 3 days by microtiter assay; type: functional
[5] = test system: MCF7; assay: Cytostatic activity against human MCF7 cells at 5 uM after 3 days by microtiter assay; type: functional
[6] = target: Estrogen receptor beta (Homo sapiens) (UniProt Q92731); assay: Displacement of [3H]E2 from human estrogen receptor beta relative to control
Sequence of Estrogen receptor beta (Homo sapiens) (Q92731 whole entry): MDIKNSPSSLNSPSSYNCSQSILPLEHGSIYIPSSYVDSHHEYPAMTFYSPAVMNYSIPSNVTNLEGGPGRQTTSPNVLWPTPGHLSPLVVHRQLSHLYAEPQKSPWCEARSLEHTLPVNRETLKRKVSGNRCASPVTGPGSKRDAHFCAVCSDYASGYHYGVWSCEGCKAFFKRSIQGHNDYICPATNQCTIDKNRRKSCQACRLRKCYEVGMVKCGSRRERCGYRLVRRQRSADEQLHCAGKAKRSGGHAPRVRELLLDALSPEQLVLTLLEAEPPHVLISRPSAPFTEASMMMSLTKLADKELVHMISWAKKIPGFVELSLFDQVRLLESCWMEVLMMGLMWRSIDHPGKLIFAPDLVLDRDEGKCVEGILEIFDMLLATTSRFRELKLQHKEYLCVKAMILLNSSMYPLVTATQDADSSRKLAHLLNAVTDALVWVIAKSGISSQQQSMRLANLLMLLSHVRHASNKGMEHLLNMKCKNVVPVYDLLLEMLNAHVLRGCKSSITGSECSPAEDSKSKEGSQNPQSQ

[7] = target: T2, Estrogen receptor (Homo sapiens) (UniProt P03372); assay: Displacement of [3H]E2 from human estrogen receptor alpha relative to control
T2 sequence (whole entry): T1 sequence (P03372 whole entry)

[8] = test system: MDA-MB-231; assay: Cytostatic activity against human MDA-MB-231 cells after 3 days by microtiter assay; type: functional, cell-based
[9] = target: T1, Estrogen receptor; assay: Antagonist activity at human ERalpha expressed in human MCF7 cells by luciferase reporter gene assay; type: functional, cell-based
[10] = target: T3, Adenosine receptor A1 (Rattus norvegicus, UniProt P25099); assay: Displacement of [3H]CCPA from adenosine A1 receptor in rat brain cortical membrane; type: cell membranes
T3 sequence (P25099 whole entry): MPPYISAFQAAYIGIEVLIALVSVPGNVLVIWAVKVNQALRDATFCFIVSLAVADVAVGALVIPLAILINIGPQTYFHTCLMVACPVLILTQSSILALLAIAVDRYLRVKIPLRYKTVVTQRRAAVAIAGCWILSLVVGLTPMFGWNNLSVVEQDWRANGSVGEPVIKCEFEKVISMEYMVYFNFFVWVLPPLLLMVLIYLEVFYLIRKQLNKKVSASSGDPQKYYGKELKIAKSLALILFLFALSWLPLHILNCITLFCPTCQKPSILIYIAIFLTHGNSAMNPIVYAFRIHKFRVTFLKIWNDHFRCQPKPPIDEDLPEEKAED

SMILES | ΔTm [1] [°C] | T/C [3] [%] | T/C [4] [%] | T/C [5] [%] | Activity [8] | Activity [4] | other results
Oc1ccc(-c2nc3ccccc3n2Cc2ccc(OCCN3CCCCC3)cc2)cc1 | 3 | 50 | <0 | 0 |  |  | IC50 [2]: 5.1 µM
Oc1ccc2c(c1)nc(-c1ccccc1)n2Cc1ccc(OCCN2CCCCC2)cc1 | 3 | 50 | <0 | 0 |  |  | RBA [6]: 0.54%; RBA [7]: 0.43%
CC/C(=C(\c1ccccc1)c1ccc(OCCN(C)C)cc1)c1ccccc1 [TAMOXIFEN] |  |  |  | 0 | Active | inactive | 
Oc1ccc2nc(-c3ccccc3)n(Cc3ccc(OCCN4CCCCC4)cc3)c2c1 | 3 | 50 | <0 | 0 |  |  | IC50 [9]: 310 nM
CCC(=C(c1ccc(O)cc1)c1ccc(OCCN(C)C)cc1)c1ccccc1 |  |  |  | 0 | Active | inactive | 
Oc1ccc(-c2nc3cc(O)ccc3n2Cc2ccc(OCCN3CCCCC3)cc2)cc1 | 3 |  |  |  |  |  | Ki [10]: 3.7 µM
Oc1ccc(-c2nc3ccc(O)cc3n2Cc2ccc(OCCN3CCCCC3)cc2)cc1 | 3 |  |  |  |  |  | Ki [10]: ≤ 3.7 µM
O=C(c1ccc(OCCN2CCCCC2)cc1)c1c(-c2ccc(O)cc2)sc2cc(O)ccc12 [RALOXIFENE] |  |  |  | 0 | Active | inactive | 
